In patent US10245249B2, “Pharmaceutical compositions comprising nitroxyl donors” (Cardioxyl Pharmaceuticals, Inc., priority 2013, dated 2019):

Columns and labels:
[1] = HNO production determined via N2O quantification (GC headspace analysis); assay type: physicochemical; conditions: PBS, 37° C.
Excerpt: Nitrous oxide (N2O) is produced via the dimerization and dehydration of HNO, and is the most common marker for nitroxyl production (Fukuto et al., Chem. Res. Toxicol. 18:790-801 (2005)). […] Using either nitrous oxide gas or Angeli's salt (AS) as a standard, the relative amounts of N2O released from compounds of the disclosure was examined via gas chromatography (GC) headspace analysis.
A procedure for determining the relative amounts of N2O released from compounds of the disclosure is as follows. GC was performed on an Agilent gas chromatograph equipped with a split injector (10:1 splitting), microelectron capture detector, and a HP-MOLSIV 30 m×0.32 mm×25 μm molecular sieve capillary column. Helium was used as the carrier (4 mL/min) gas and nitrogen was used as the make-up (20 mL/min) gas. The injector oven and the detector oven were kept at 200° C. and 325° C., respectively. All nitrous oxide analyses were performed with the column oven held at a constant temperature of 200° C.
All gas injections were made using an automated headspace analyzer. Vial pressurization was 15 psi. The analyzer's sample oven, sampling valve, and transfer line were kept at 40° C., 45° C., and 50° C., respectively. The oven stabilization, vial pressurization, loop fill, loop equilibration, and sample injection times were 1.00 min., 0.20 min., 0.20 min., 0.05 min., and 1.00 min., respectively.
All determinations used a batch of nominal 20 mL headspace vials with volumes pre-measured for sample uniformity (actual vial volume varied by <2.0% relative standard deviation (n=6)). The average vial volume for the batch was determined from six randomly-selected vials by calculating the weight difference between the capped and sealed empty (i.e., air-filled) vial and the capped and sealed deionized water-filled vial using the known density of deionized water, then averaging. Blanks were prepared by sealing and capping two vials then purging each for 20 seconds with a gentle argon stream. Nitroxyl standards were prepared by sealing and capping four vials then purging each for 1 minute with a gentle stream, from a gas cylinder, of a 3000 ppm […].
CXL-1020 (N-hydroxy-2-methanesulfonylbenzene-1-sulfonamide) “standards” were prepared by, in duplicate, accurately weighing 10±0.5 mg of CXL-1020 and adding it to each 4 mL vial. Using an auto pipette, 1 mL of argon-purged anhydrous DMF (Sigma-Aldrich) was added to each 4 mL vial to form a CXL-1020 stock solution for each sample and the vials were capped and shaken and/or sonicated to insure complete dissolution upon visual observation. Using an auto pipette, 20 mL vials were charged with 5 mL of PBS (purged for at least 30 min. with argon prior to use), purged with argon for at least 20 sec., and sealed with a rubber septum. Using a 50 μL syringe, 50 μL of the CXL-1020 stock solution was injected into each 20 mL vial containing the PBS.
Samples were prepared as follows. In duplicate, 18±1 mg of each sample was accurately weighed into each 4 mL vial. Using an auto pipette, 1 mL of argon-purged anhydrous DMF was added to each 4 mL vial to form a sample stock solution for each sample and the vials were capped and shaken and/or sonicated to insure complete sample dissolution upon visual observation. Using an auto pipette, 20 mL vials were charged with 5 mL of PBS (purged for at least 30 min. with argon prior to use), purged with argon for at least 20 sec., and sealed with a rubber septum. The vials were equilibrated for at least 10 min. at 37° C. in a dry block heater. Thereafter, using a 50 μL syringe, 50 μL of a sample stock solution was injected into each 20 mL vial containing the PBS. The vials were then held at 37° C. in the dry block heater for a time period such that the sum of the time spent in the dry block heater plus the time spent in the automated headspace analyzer oven before sample injection equaled the desired incubation time. […]

[2] = In vitro stability (half-life) in phosphate buffered saline (PBS) pH 7.4; assay type: physicochemical; conditions: pH 7.4, 5 μM, PBS pH 7.4, 37° C., read-out: T1/2 (minutes) PBS
Experimental: (§1) Certain compounds from Tables 1 and 2 and CXL-1020 were tested for their stability in phosphate buffered saline (PBS) and plasma. The assay system comprised (i) PBS, or plasma from rat, dog or human (at least 3 donors, male, pooled) at pH 7.4, and (ii) for tests conducted in plasma, an anticoagulant (sodium heparin or sodium citrate). Each test compound (5 μM) was incubated in PBS or plasma at 37° C. on a THERMOMIXER® with shaking. Three samples (n=3) were taken at each of seven sampling time points: 0, 10, 30, 60, 90, 180 and 360 minutes. The samples were immediately combined with 3 volumes (i.e., 3 times the volume of PBS or plasma) of acetonitrile containing 1% formic acid and an internal standard to terminate the reaction. AB SCIEX API 3000 LC-MS/MS analysis of the test compounds was performed without a standard curve. Half-lives (T1/2) of the test compounds were determined from graphs of the percent remaining values using the peak area response ratio. For compounds tested multiple times, the value provided in the Table represents an average of the replicate assays.

[3] = In vitro stability (half-life) in rat plasma; assay type: in vitro ADME; conditions: rat plasma pH 7.4 with anticoagulant, 37° C.; for half-life at 5 μM: male, rat, plasma, pH 7.4, 5 μM, read-out: T1/2 (minutes) Rat
Experimental: as §1

Row | SMILES | Relative N2O Yield (90 minutes incubation) [1] [%] | Relative N2O Yield (360 minutes incubation) [1] [%] | half-life at 5 μM [2] [min] | half-life at 5 μM [3] [min] | T1/2 (minutes) Rat ([3]; 5 μM) [min]
1 | CC(=O)N1CCc2cc(Br)c(S(=O)(=O)NO)cc21 [Compound 9, 1-Acetyl-5-bromo-N-hydroxy-2,3-dihydro-1H-indole-6-sulfonamide] | 53 | 71 | 2 | > 360 | 
2 | CC(C)NC(=O)c1ccc(S(=O)(=O)NO)s1 [Compound 22, 5-(Hydroxysulfamoyl)-N-(propan-2-yl)thiophene-2-carboxamide] | 85 |  | 33 | 23 | 
3 | O=S(=O)(NO)c1ccccn1 [Compound 32, N-Hydroxypyridine-2-sulfonamide] | 71 |  | 61 | 32 | 
4 | CC(=O)N1CCc2cc(Cl)c(S(=O)(=O)NO)cc21 [Compound 11, 1-Acetyl-5-chloro-N-hydroxy-2,3-dihydro-1H-indole-6-sulfonamide] | 55 | 81 | 5 | < 5 | 
5 | Cc1ccc(F)cc1S(=O)(=O)NO [Compound 20, 5-Fluoro-N-hydroxy-2-methylbenzene-1-sulfonamide] | 90 |  |  |  | 7
6 | Cc1cc(F)ccc1S(=O)(=O)NO [Compound 39, 4-Fluoro-N-hydroxy-2-methylbenzene-1-sulfonamide] | 60 | 75 | 30 | 29 | 
7 | O=C(c1ccc(S(=O)(=O)NO)s1)N1CCOCC1 [Compound 21, N-Hydroxy-5-(morpholine-4-carbonyl)thiophene-2-sulfonamide] | 73.5 |  | 39 | 36 | 
8 | O=C(c1csc(S(=O)(=O)NO)c1)N1CCOCC1 [Compound 35, N-Hydroxy-4-(morpholine-4-carbonyl)thiophene-2-sulfonamide] | 100 |  | 58 | 19 | 
9 | Cc1ccc(S(=O)(=O)NO)c(F)c1 [Compound 14, 2-Fluoro-N-hydroxy-4-methylbenzene-1-sulfonamide] | 48 | 70 | 75 | 13 | 
10 | O=[N+]([O-])c1cc(S(=O)(=O)NO)sc1Cl [Compound 47, 5-Chloro-N-hydroxy-4-nitrothiophene-2-sulfonamide] | 58 | 70 | 11 | < 5 | 
11 | O=S(=O)(NO)c1cccc2nsnc12 [Compound 24, N-Hydroxy-2,1,3-benzothiadiazole-4-sulfonamide] | 60 | 69 | 37 | 14 | 
12 | O=S(=O)(NO)c1ccc2nsnc2c1 [Compound 15, N-Hydroxy-2,1,3-benzothiadiazole-5-sulfonamide] | 59 | 71 | 63 |  | 
13 | O=S(=O)(NO)c1cccc2ccoc12 [Compound 4, N-Hydroxy-1-benzofuran-7-sulfonamide] | 64 |  | 149 |  | 
14 | CS(=O)(=O)c1ccc(S(=O)(=O)NO)s1 [Compound 23, N-Hydroxy-5-methanesulfonylthiophene-2-sulfonamide] |  |  | 66 |  | 
15 | Cc1cc(S(=O)(=O)NO)c(C)cc1Cl [Compound 18, 4-Chloro-N-hydroxy-2,5-dimethylbenzene-1-sulfonamide] | 56 | 73 | 56 | > 360 | 
16 | O=S(=O)(NO)c1cc(S(=O)(=O)c2ccccc2)cs1 [Compound 51, 4-(Benzenesulfonyl)-N-hydroxythiophene-2-sulfonamide] | 96 |  | 15 | 7 | 
17 | O=S(=O)(NO)c1cc(CO)ccc1Cl [Compound 10, 2-Chloro-N-hydroxy-5-(hydroxymethyl)benzene-1-sulfonamide] | 91 |  | 5 |  | 
18 | COc1ccc(Br)cc1S(=O)(=O)NO [Compound 17, 5-Bromo-N-hydroxy-2-methoxybenzene-1-sulfonamide] | 53 | 77 | 59 | > 360 | 
19 | COc1ccccc1S(=O)(=O)NO [Compound 25, N-Hydroxy-2-methoxybenzene-1-sulfonamide] | 7 | 28 | 86 |  | 
20 | Cc1ccc(F)c(S(=O)(=O)NO)c1 [Compound 56, 2-Fluoro-N-hydroxy-5-methylbenzene-1-sulfonamide] | 72 | 78 | 34 | 8 | 
21 | O=C(c1cc(S(=O)(=O)NO)cs1)N1CCOCC1 [Compound 28, N-Hydroxy-5-(morpholine-4-carbonyl)thiophene-3-sulfonamide] | 74 |  | 136 |  | 
22 | O=S(=O)(NO)c1ccc(Cl)c(Cl)c1 [Compound 95, 3,4-Dichloro-N-hydroxybenzene-1-sulfonamide] |  |  | > 360 | > 360 | 
23 | COc1ccc2cc(S(=O)(=O)NO)oc2c1 [Compound 13, N-Hydroxy-6-methoxy-1-benzofuran-2-sulfonamide] | 86 |  | 42 |  | 
24 | CS(=O)(=O)c1csc(S(=O)(=O)NO)c1 [Compound 16, N-Hydroxy-4-methanesulfonylthiophene-2-sulfonamide] | 86 |  | 20 |  | 
25 | Cn1cc(S(=O)(=O)NO)cn1 [Compound 31, N-Hydroxy-1-methyl-1H-pyrazole-4-sulfonamide] |  |  | 745 |  | 
26 | CCN(CC)C(=O)c1ccc(S(=O)(=O)NO)s1 [Compound 19, N,N-Diethyl-5-(hydroxysulfamoyl)thiophene-2-carboxamide] | 77 |  | 44 |  | 
27 | Cc1nn(C)c(Cl)c1S(=O)(=O)NO [Compound 30, 5-Chloro-N-hydroxy-1,3-dimethyl-1H-pyrazole-4-sulfonamide] | 27 |  | 385 |  | 
28 | O=S(=O)(NO)c1cc(Cl)c(Cl)s1 [Compound 12, 4,5-Dichloro-N-hydroxythiophene-2-sulfonamide] | 29 |  | 20 |  | 
